Measurements: patent US20140163026A1, “8-ETHYL-6-(ARYL)PYRIDO[2,3-D]PYRIMIDIN-7(8H)-ONES FOR THE TREATMENT OF NERVOUS SYSTEM DISORDERS AND CANCER” (Afraxis Holdings, Inc., priority 2011, published 2014)

Assays:
Format in all cases: biochemical
PAK1 = PAK1 (Homo sapiens, UniProt Q13153); assay: In vitro PAK inhibition assay (SelectScreen, Ser/Thr 19 peptide)
Method: (§1) Compounds are screened in 1% DMSO (final) in the well. For 10 point titrations, 3-fold serial dilutions are conducted.
(§2) All Peptide/Kinase Mixtures are diluted to a 2× working concentration in the appropriate Kinase Buffer
The 2×PAK1/Ser/Thr 19 mixture is prepared in 50 mM HEPES pH 7.5, 0.01% BRIJ-35, 10 mM MgCl2, 1 mM EGTA.
(§3) This control yields 100% cleaved peptide in the Development Reaction.
(§4) The 100% Phosphorylation Control, which consists of a synthetically phosphorylated peptide of the same sequence as the peptide substrate, is designed to allow for the calculation of percent phosphorylation.
(§5) This control is designed to produce a 10-50%* phosphorylated peptide in the Kinase Reaction.
(§6) A known inhibitor control standard curve, 10 point titration, is run for each individual kinase on the same plate as the kinase to ensure the kinase is inhibited within an expected IC50 range previously determined.
(§7) Add the following solutions to a well in a 384-well plate: • 2.5 μL of 4× Test Compound OR (100 nL 100× Test Compound plus 2.4 μL kinase buffer) • 5 μL of 2× Peptide/Kinase (PAK) Mixture • 2.5 μL of 4×ATP Solution • 2. Shake the plate for 30-seconds • 3. Incubate the PAK Kinase Reaction at room temperature for 60-minutes • 4. Add 5 μL of Development Reagent Solution to each well • 5. Shake the plate for 30-seconds • 6. Incubate the Development Reaction for 60-minutes • 7. Determine the fluorescence using a fluorescence plate reader • 8. Analyze the fluorescence data
(§8) SelectScreen® Kinase Profiling Service uses XLfit from IDBS.
(§9) The representative IC50 value with a known inhibitor for each kinase was determined at the ATP bin nearest to the ATP Km app.

PAK2 (PAK65) = PAK2 (PAK65) (Homo sapiens, UniProt Q13177); assay: In vitro PAK inhibition assay (SelectScreen, Ser/Thr 20 peptide)
Chain of PAK2 (PAK65) (Q13177 whole entry): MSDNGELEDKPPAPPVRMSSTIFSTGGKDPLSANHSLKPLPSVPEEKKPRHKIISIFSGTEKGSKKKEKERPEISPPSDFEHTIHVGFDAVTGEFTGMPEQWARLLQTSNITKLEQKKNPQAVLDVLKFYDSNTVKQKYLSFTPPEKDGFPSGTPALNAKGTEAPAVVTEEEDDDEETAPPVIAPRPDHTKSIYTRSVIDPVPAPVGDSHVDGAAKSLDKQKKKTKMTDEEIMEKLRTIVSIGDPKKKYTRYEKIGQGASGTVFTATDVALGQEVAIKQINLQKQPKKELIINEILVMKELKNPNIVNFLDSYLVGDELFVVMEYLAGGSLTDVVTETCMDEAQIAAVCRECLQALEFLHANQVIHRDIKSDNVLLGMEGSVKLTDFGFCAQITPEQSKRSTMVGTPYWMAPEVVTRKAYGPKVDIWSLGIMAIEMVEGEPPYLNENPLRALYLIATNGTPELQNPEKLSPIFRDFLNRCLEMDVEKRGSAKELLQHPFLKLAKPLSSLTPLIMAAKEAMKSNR
Method: as §1, §2
The 2×PAK2 (PAK65)/Ser/Thr 20 mixture is prepared in 50 mM HEPES pH 7.5, 0.01% BRIJ-35, 10 mM MgCl2, 1 mM EGTA. The final 10 μL Kinase Reaction consists of 0.29-6 ng PAK2 (PAK65) and 2 μM Ser/Thr 20 in 50 mM HEPES pH 7.5, 0.01% BRIJ-35, 10 mM MgCl2, 1 mM EGTA.
as §3, §4, §5, §6, §7, §8, §9

PAK3 = PAK3 (Homo sapiens, UniProt O75914); assay: as above
Chain of PAK3 (O75914 whole entry): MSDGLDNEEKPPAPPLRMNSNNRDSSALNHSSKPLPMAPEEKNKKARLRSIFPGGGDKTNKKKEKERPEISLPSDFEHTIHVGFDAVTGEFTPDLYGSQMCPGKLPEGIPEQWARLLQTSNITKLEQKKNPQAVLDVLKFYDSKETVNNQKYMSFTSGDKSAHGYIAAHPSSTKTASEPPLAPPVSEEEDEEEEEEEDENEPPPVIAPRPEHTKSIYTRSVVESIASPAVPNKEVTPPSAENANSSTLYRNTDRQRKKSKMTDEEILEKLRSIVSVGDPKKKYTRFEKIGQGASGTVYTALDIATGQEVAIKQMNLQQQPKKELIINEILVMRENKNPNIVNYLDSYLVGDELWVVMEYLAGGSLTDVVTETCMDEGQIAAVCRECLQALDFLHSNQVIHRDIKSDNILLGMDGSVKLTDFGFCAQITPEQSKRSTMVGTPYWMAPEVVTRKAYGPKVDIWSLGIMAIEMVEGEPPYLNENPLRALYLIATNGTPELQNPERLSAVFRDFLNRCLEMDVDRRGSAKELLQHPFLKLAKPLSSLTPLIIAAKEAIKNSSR
Method: as §1, §2
The 2×PAK3/Ser/Thr 20 mixture is prepared in 50 mM HEPES pH 7.5, 0.01% BRIJ-35, 10 mM MgCl2, 1 mM EGTA.
as §3, §4, §5, §6, §7, §8, §9

PAK4 = PAK4 (Homo sapiens, UniProt O96013); assay: as above
Chain of PAK4 (O96013 whole entry): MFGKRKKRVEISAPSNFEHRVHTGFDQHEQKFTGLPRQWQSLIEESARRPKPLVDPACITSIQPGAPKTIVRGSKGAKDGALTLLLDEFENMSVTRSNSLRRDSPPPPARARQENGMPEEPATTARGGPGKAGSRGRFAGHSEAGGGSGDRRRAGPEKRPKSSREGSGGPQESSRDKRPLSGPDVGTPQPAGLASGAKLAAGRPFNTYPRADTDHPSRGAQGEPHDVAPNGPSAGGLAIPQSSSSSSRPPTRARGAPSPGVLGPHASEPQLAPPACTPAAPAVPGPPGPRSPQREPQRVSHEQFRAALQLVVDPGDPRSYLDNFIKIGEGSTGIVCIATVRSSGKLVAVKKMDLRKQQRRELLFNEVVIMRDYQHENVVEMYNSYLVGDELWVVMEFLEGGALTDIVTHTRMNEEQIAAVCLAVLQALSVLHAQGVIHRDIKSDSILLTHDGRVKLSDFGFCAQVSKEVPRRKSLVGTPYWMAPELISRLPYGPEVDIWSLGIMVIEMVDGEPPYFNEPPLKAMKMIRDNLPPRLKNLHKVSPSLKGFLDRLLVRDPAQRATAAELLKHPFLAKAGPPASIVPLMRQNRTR
Method: as §1, §2
The 2×PAK4/Ser/Thr 20 mixture is prepared in 50 mM HEPES pH 7.5, 0.01% BRIJ-35, 10 mM MgCl2, 1 mM EGTA. The final 10 μL Kinase Reaction consists of 0.1-0.75 ng PAK4 and 2 μM Ser/Thr 20 in 50 mM HEPES pH 7.5, 0.01% BRIJ-35, 10 mM MgCl2, 1 mM EGTA. After the 1 hour Kinase Reaction incubation, 5 μL of a 1:256 dilution of Development Reagent A is added.
as §3, §4
The minimum Emission Ratio in a screen is established by the 0% Inhibition Control, which contains active kinase. This control is designed to produce a 10-50%* phosphorylated peptide in the Kinase Reaction.
as §6
as §7, with “Bar-coded Corning, low volume NBS, black 384-well plate (Corning Cat. #3676) • 1. Add the” for “Add the”
SelectScreen® Kinase Profiling Service uses XLfit from IDBS. The dose response curve is curve fit to model number 205 (sigmoidal dose-response model).
The table below provides specifications and data around each kinase. The representative IC50 value with a known inhibitor for each kinase was determined at the ATP bin nearest to the ATP Km app.

Chain of PAK1 (Q13153 whole entry): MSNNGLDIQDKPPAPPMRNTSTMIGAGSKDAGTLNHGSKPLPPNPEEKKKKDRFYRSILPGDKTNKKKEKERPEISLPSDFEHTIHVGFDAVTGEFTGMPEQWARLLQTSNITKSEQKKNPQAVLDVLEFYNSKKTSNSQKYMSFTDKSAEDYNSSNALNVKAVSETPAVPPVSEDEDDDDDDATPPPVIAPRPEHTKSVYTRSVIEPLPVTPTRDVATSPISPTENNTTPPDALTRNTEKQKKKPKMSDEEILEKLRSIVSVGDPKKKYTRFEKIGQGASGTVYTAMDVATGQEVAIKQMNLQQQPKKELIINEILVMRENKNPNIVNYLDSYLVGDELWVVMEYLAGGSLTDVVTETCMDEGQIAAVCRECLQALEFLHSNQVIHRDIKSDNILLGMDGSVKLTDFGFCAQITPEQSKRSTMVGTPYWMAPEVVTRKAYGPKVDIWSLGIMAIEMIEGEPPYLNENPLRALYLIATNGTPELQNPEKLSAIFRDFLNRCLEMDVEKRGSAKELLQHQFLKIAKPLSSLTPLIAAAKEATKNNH

| SMILES | IC50 (PAK1) [nM] | IC50 (PAK2 (PAK65)) [nM] | IC50 (PAK3) [nM] | IC50 (PAK4) [nM] |
| --- | --- | --- | --- | --- |
| CCn1c(=O)c(-c2ccc(-c3cn[nH]c3)cc2Cl)cc2cnc(Nc3ccc(N4CCN(C)CC4)cc3)nc21 | 50 to 500 | 50 to 500 | 50 to 500 | ≥ 5000 |
| CCn1c(=O)c(-c2ccc(-c3cccs3)s2)cc2cnc(Nc3ccc(N4CCN(C)CC4)cc3)nc21 | > 5000 | > 5000 | > 5000 | ≥ 5000 |
| CCn1c(=O)c(-c2ccc(-c3cccnc3C)cc2Cl)cc2cnc(Nc3ccc(C4CCNCC4)c(F)c3)nc21 | < 50 | < 50 | 50 to 500 | 500 to 5000 |
| CCn1c(=O)c(-c2ccc(-c3cccnc3)cc2Cl)cc2cnc(Nc3ccc(N4CCN(C)CC4)cc3)nc21 | < 50 | < 50 | < 50 | 500 to 5000 |
| CCn1c(=O)c(-c2ccc(-c3scnc3C)cc2Cl)cc2cnc(Nc3ccc(N4CCN(C)CC4)cc3)nc21 | < 50 | < 50 | < 50 | ≥ 5000 |
| CCn1c(=O)c(-c2ccc(-c3ccc(C)nc3)cc2Cl)cc2cnc(Nc3ccc(C4CCN(C(C)C)CC4)cc3)nc21 | < 50 | < 50 | 50 to 500 | ≥ 5000 |
| CCn1c(=O)c(-c2ccc(-c3noc(C)n3)cc2C)cc2cnc(Nc3ccc(C4CCN(C)CC4)cc3)nc21 | < 50 | < 50 | < 50 | 500 to 5000 |
| CCn1c(=O)c(-c2ccc(-c3cnccn3)cc2F)cc2cnc(Nc3ccc(C4CCN(C)CC4)cc3)nc21 | < 50 | < 50 | < 50 | 50 to 500 |
| CCn1c(=O)c(-c2ccc(-c3cn[nH]c3)cc2)cc2cnc(Nc3ccc(N4CCN(C)CC4)cc3)nc21 | > 5000 | 500 to 5000 | > 5000 | ≥ 5000 |
| CCn1c(=O)c(-c2ccc(-c3cccnc3)cc2Cl)cc2cnc(Nc3ccc(N4CCNCC4)c(F)c3)nc21 | < 50 | < 50 | < 50 | 500 to 5000 |
| CCn1c(=O)c(-c2ccc(-c3ccc(C(=O)NC)nc3)cc2Cl)cc2cnc(Nc3ccc(N4CCN(C)CC4)cc3)nc21 | > 5000 | 50 to 500 | > 5000 | ≥ 5000 |
| CCn1c(=O)c(-c2ccc(-c3cnc(C)s3)cc2Cl)cc2cnc(Nc3ccc(C4CCNC4)cc3)nc21 (stereo not drawn) | < 50 | < 50 | < 50 | 500 to 5000 |
| CCn1c(=O)c(-c2ccc(-c3noc(C)n3)cn2)cc2cnc(Nc3ccc(C4CCN(C)CC4)cc3)nc21 | 500 to 5000 | > 5000 | > 5000 | ≥ 5000 |
| CCn1c(=O)c(-c2ccc(-c3ccc(C)nc3F)cc2Cl)cc2cnc(Nc3ccc(C4CCN(C)CC4)c(F)c3)nc21 | 50 to 500 | 50 to 500 | 50 to 500 | 500 to 5000 |
| CCn1c(=O)c(-c2ccc(-c3cccnc3)cc2Cl)cc2cnc(Nc3ccc(N4CCN(C(C)C)CC4)cc3)nc21 [drawing 650] | < 50 | < 50 | < 50 | ≥ 5000 |
| CCn1c(=O)c(-c2ccc(-c3cncs3)cc2)cc2cnc(Nc3ccc(N4CCN(C)CC4)cc3)nc21 | 50 to 500 | 500 to 5000 | > 5000 | ≥ 5000 |
| CCn1c(=O)c(-c2ccc(-c3ccn[nH]3)cc2)cc2cnc(Nc3ccc(N4CCN(C)CC4)cc3)nc21 | 500 to 5000 | 50 to 500 | 500 to 5000 | ≥ 5000 |
| CCn1c(=O)c(-c2ccc(-c3cccnc3F)cc2Cl)cc2cnc(Nc3ccc(C4=CCN(C)CC4)cc3)nc21 | < 50 | < 50 | < 50 | 500 to 5000 |
